Measurements: patent publication US20180118718A1, “Substituted Quinoxaline Derivatives” (Selvita S.A., priority 2015, published 2018)

Molecular target: T1, Human recombinant His-tagged PFKFB3 (Homo sapiens, UniProt Q16875)
T1 construct: His; made in house
Assay: PFKFB3 IC50 Determination Assay (in vitro kinase assay, modified ADP-Glo system)
Type: biochemical
Settings: ATP 20 μM and fructose-6-phosphate 2 μM (Km), 25 nM PFKFB3, 2 h, rt, ADP-Glo luminescence
Method: PFKFB3 IC50 Determination Assay
In vitro kinase assay used to determine IC50 values for tested inhibitors is based on a modified ADP-Glo™ system (Promega) and consists of two parts:
1. Kinase reaction—performed in optimized conditions. At this step PFKFB3 phosphorylates its substrate Fructose-6-phosphate using ATP as a source of phosphate to produce Fructose-2,6-bisphosphate and ADP. Reaction is performed at Km values for ATP and substrate using optimized buffer composition and time of the reaction. Human recombinant His-tagged PFKFB3 (PFKFB3 BATCH II SEC) with confirmed activity is produced and purified in-house. 2. Detection of ADP as a product of the reaction using ADP-Glo™ system. This part is conducted by using the commercially available kit ADP-Glo™ Kinase Assay (Promega, cat. No# V9103) according to manufacturer's instruction, modified by 5x dilutions of assay reagents (both ADP-Glo™ Reagent and Kinase Detection Solution).
Test compounds are dissolved in DMSO and then transferred to the V-bottom 96-well plate.
15 μL per well of Mix 1 is transferred to assay wells of 96-well white plate. […] Total reaction volume is 30 μL per well. Samples are tested in duplicates. Final concentration of DMSO in the reaction is 6.7%. Conditions needed for performing PFKFB3 (PFKFB3 BATCH II SEC) in vitro kinase assay are given below:
This protocol is based on Technical Bulletin, ADP-Glo™ Kinase Assay (Promega) and is adapted to 96-well plate containing 30 μL reaction mixture:
30 μL of 5x diluted ADP-Glo™ Reagent is added to each well of 96-well plate containing 30 μL of reaction mixture. The plate is incubated for 90 minutes on a shaker at RT. 60 μL of 5x diluted Kinase Detection Solution is added to each well of 96-well plate containing 60 μL of the solution (ratio of kinase reaction volume to ADP-Glo™ Reagent volume to Kinase Detection Solution volume is maintained at 1:1:2). Plate is incubated for 40 minutes on a shaker at RT, protected from light. Luminescence is measured in the plate reader Synergy 2 (BioTek).
Luminescent readouts for compounds tested in 10 concentrations (routinely from 100 μM to […], […] serial dilutions) in duplicates, as well as for positive control, are first normalized to no-substrate negative control by its subtraction. In the next step, % of normalized positive control is calculated for each data point and plotted against test compound concentration:
% of control percent of positive control normalized to no-substrate negative control Lumcpd luminescence of test compound Lumneg luminescence of no-substrate negative control Lumpos luminescence of positive control
IC50 parameter is determined by the GraphPad Prism 5.0 software [log(inhibitor) vs. response −Variable slope (four parameters)].

T1 sequence (Q16875 whole entry): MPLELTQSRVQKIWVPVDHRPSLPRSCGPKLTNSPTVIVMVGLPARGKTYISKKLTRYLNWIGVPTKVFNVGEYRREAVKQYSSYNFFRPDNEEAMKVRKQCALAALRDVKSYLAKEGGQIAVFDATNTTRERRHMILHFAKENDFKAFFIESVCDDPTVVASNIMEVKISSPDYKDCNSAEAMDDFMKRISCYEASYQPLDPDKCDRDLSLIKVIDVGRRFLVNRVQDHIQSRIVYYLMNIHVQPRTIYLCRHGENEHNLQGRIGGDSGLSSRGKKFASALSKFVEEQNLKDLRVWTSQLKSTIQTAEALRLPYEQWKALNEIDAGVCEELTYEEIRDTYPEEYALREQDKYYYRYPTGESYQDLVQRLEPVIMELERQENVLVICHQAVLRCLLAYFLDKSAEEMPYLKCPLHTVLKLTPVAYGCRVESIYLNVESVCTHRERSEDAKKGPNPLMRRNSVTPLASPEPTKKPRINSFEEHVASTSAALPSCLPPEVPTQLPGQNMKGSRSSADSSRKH

Row | SMILES | IC50 [µM]
1 | Cn1ccc2cc(-c3cc(N4CCc5ccncc54)cc4nccnc34)ccc21 [Example 34, 5-(1-Methyl-1H-indol-5-yl)-7-{1H,2H,3H-pyrrolo[2,3-c]pyridin-1-yl}quinoxaline] | 10 to 100
2 | Cn1ccc2ccc(-c3cc(Nc4cnccc4Cl)cc4nccnc34)cc21 [Example 69, N-(4-Chloropyridin-3-yl)-8-(1-methyl-1H-indol-6-yl)quinoxalin-6-amine] | 0.001 to 1
3 | Cn1ccc2ccc(-c3cc(Nc4ccccc4S(=O)(=O)NC4CCCOC4)cc4nccnc34)cc21 (stereo not shown) [Example 209, 2-{[8-(1-Methyl-1H-indol-6-yl)quinoxalin-6-yl]amino}-N-(oxan-3-yl)benzene-1-sulfonamide] | 0.001 to 1
4 | Cn1ccc2cc(-c3cc(Nc4cnccc4Cl)cc4nccnc34)ccc21 [Example 30, N-(4-Chloropyridin-3-yl)-8-(1-methyl-1H-indol-5-yl)quinoxalin-6-amine] | 10 to 100
5 | Cn1ccc2ccc(-c3cc(Nc4ccncc4C#N)cc4nccnc34)cc21 [Example 145, 4-{[8-(1-Methyl-1H-indol-6-yl)quinoxalin-6-yl]amino}pyridine-3-carbonitrile] | 1 to 10
6 | Cn1ccc2ccc(-c3cc(Nc4cc([N+](=O)[O-])ccc4S(C)(=O)=O)cc4nccnc34)cc21 [Example 35, N-(2-Methanesulfonyl-5-nitrophenyl)-8-(1-methylindol-6-yl)quinoxalin-6-amine] | 0.001 to 1
7 | Cn1nnc2ccc(-c3cc(Nc4cnccc4S(C)(=O)=O)cc4nccnc34)cc21 [Example 170, N-(4-Methanesulfonylpyridin-3-yl)-8-(1-methyl-1H-1,2,3-benzotriazol-6-yl)quinoxalin-6-amine] | 10 to 100
8 | CS(=O)(=O)c1ccncc1Nc1cc(-c2ccc3sncc3c2)c2nccnc2c1 [Example 161, 8-(1,2-Benzothiazol-5-yl)-N-(4-methanesulfonylpyridin-3-yl)quinoxalin-6-amine] | 1 to 10
9 | Cn1ccc2ccc(-c3cc(Nc4ccc[nH]c4=O)cc4nccnc34)cc21 [Example 14, 3-{[8-(1-Methyl-1H-indol-6-yl)quinoxalin-6-yl]amino}pyridin-2-ol] | 0.001 to 1
10 | CN(C)c1nc2cc(-c3cc(Nc4cnccc4S(C)(=O)=O)cc4nccnc34)ccc2s1 [Example 201, 8-[2-(Dimethylamino)-1,3-benzothiazol-5-yl]-N-(4-methanesulfonylpyridin-3-yl)quinoxalin-6-amine] | 10 to 100
11 | Cn1ccc2ccc(-c3cc(Nc4cnccc4C(=O)NCc4cccnn4)cc4nccnc34)cc21 [Example 144, 3-{[8-(1-Methyl-1H-indol-6-yl)quinoxalin-6-yl]amino}-N-[(pyridazin-3-yl)methyl]pyridine-4-carboxamide] | 0.001 to 1

The remaining lines, values ahead:

Row | IC50 [µM] | SMILES
12 | 0.001 to 1 | Cc1coc2ccc(-c3cc(Nc4cc(N)ccc4S(C)(=O)=O)cc4nccnc34)cc12 [Example 102, 6-Methanesulfonyl-N1-[8-(3-methyl-1-benzofuran-5-yl)quinoxalin-6-yl]benzene-1,3-diamine]
13 | 10 to 100 | CS(=O)(=O)c1ccncc1Nc1cc(-c2cccc(-c3cn[nH]n3)c2)c2nccnc2c1 [Example 48, N-(4-Methanesulfonylpyridin-3-yl)-8-[3-(1H-1,2,3-triazol-4-yl)phenyl]quinoxalin-6-amine]
14 | 10 to 100 | Cc1nc2cc(-c3cc(Nc4cnccc4S(C)(=O)=O)cc4nccnc34)ccc2s1 [Example 169, N-(4-methanesulfonylpyridin-3-yl)-8-(2-methyl-1,3-benzothiazol-5-yl)quinoxalin-6-amine]
15 | 0.001 to 1 | CC(=O)N1CCOCC1CNC(=O)c1ccncc1Nc1cc(-c2ccc3ccn(C)c3c2)c2nccnc2c1 (stereo not shown) [Example 136, N-[(4-acetylmorpholin-3-yl)methyl]-3-{[8-(1-methyl-1H-indol-6-yl)quinoxalin-6-yl]amino}pyridine-4-carboxamide]
16 | 1 to 10 | Cn1nccc1-c1ccc(S(C)(=O)=O)c(Nc2cc(-c3ccc4ccn(C)c4c3)c3nccnc3c2)c1 [Example 93, N-[2-Methanesulfonyl-5-(1-methyl-1H-pyrazol-5-yl)phenyl]-8-(1-methyl-1H-indol-6-yl)quinoxalin-6-amine]
